Test results: patent US6737383B1, “Herbicidal oxadiazolidines” (priority 1999, dated 2004)

Columns and labels:
barnyardgrass = assay: Test A barnyardgrass; format: in vivo, Echinochloa crus-galli; conditions: 0 to 10 scale where 0 is no effect and 10 is complete control
Summary of the method: (§1)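 Injury scored visually after about eleven greenhouse days against untreated plants, 0 = no effect, 10 = complete control. Compounds, formulated in surfactant-containing non-phytotoxic solvent, were applied as preemergence soil drench to sandy loam plantings and as postemergence runoff spray at the 1–2 leaf stage.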

crabgrass = assay: Test A crabgrass; format: in vivo, Digitaria spp.; conditions: 0 to 10 scale where 0 is no effect and 10 is complete control
Summary of the method: as §1

velvetleaf = assay: Test A velvetleaf; format: in vivo, Abutilon theophrasti; conditions: 0 to 10 scale where 0 is no effect and 10 is complete control
Summary of the method: as §1

Alexandergrass = assay: Test D Alexandergrass; format: in vivo, Brachiaria plantaginea; conditions: Preemergence, 0 to 100 scale
Summary of the method: (§2)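 Weed seeds planted in sandy loam; species kept apart in individual pots or compartments. Preemergence tests: treatment to soil surface within one day. Greenhouse growth, then visual injury scoring at 14–21 days (0–100).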

common pursiane = assay: Test D common purslane; format: in vivo, Portulaca oleracea
Summary of the method: as §2

common groundsel = assay: Test D common groundsel; format: in vivo, Senecio vulgaris; conditions: Preemergence, 0 to 100 scale
Summary of the method: as §2

dallisgrass = assay: Test D dallisgrass; format: in vivo, Paspalum dilatatum; conditions: Preemergence, 0 to 100 scale
Summary of the method: as §2

goosegrass = assay: Test D goosegrass; format: in vivo, Eleusine indica; conditions: Preemergence, 0 to 100 scale
Summary of the method: as §2

guineagrass = assay: Test D guineagrass; format: in vivo, Panicum maximum; conditions: Preemergence, 0 to 100 scale
Summary of the method: as §2

itchgrass = assay: Test D itchgrass; format: in vivo, Rottboellia exaltata; conditions: Preemergence, 0 to 100 scale
Summary of the method: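 Scoring used a 0–100 visual injury scale, with 0 meaning no effect and 100 complete control, assessed 14–21 days after application alongside untreated pots. Preemergence treatments went onto sandy loam surfaces of separately potted seeds within a day of sowing.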

Johnson grass = assay: Test D Johnson grass; format: in vivo, Sorghum halepense; conditions: Preemergence, 0 to 100 scale
Summary of the method: as §2

large crabgrass = assay: Test D large crabgrass; format: in vivo, Digitaria sanguinalis; conditions: Preemergence, 0 to 100 scale
Summary of the method: as §2

pitted morningglory = assay: Test D pitted morningglory; format: in vivo, Ipomoea lacunosa; conditions: Preemergence, 0 to 100 scale
Summary of the method: as §2

purple nutsedge = assay: Test D purple nutsedge; format: in vivo, Cyperus rotundus; conditions: Preemergence, 0 to 100 scale
Summary of the method: as §2

sandbur = assay: Test D sandbur; format: in vivo, Cenchrus echinatus; conditions: Preemergence, 0 to 100 scale
Summary of the method: as §2

Spanishneedles = assay: Test D Spanishneedles; format: in vivo, Bidens bipinnata; conditions: Preemergence, 0 to 100 scale
Summary of the method: as §2

surinam grass = assay: Test D surinam grass; format: in vivo, Brachiaria decumbens; conditions: Preemergence, 0 to 100 scale
Summary of the method: as §2

tall mallow = assay: Test D tall mallow; format: in vivo, Malva sylvestris; conditions: Preemergence, 0 to 100 scale
Summary of the method: as §2

Green foxtail [1] = assay: Test D green foxtail; format: in vivo
Summary of the method: as §2

Green foxtail [2] = assay: Test D green foxtail; format: in vivo; conditions: Preemergence, 0 to 100 scale
Summary of the method: as §2

[3] = Rate 125 g/ha, 0 no injury, 100 complete control
[4] = Rate 125 g/ha, Preemergence; 0 to 100 scale, 0 no injury, 100 complete control
[5] = Rate 16 g/ha, 0 no injury, 100 complete control
[6] = Rate 32 g/ha, 0 no injury, 100 complete control
[7] = Rate 64 g/ha, 0 no injury, 100 complete control
[8] = Rate 16 g/ha; Preemergence; 0 to 100 scale, 0 no injury, 100 complete control
[9] = Rate 32 g/ha; Preemergence; 0 to 100 scale, 0 no injury, 100 complete control
[10] = Rate 64 g/ha, Preemergence; 0 to 100 scale, 0 no injury, 100 complete control
[11] = Rate 250 g/ha; Preemergence; 0 to 100 scale
[12] = Rate 500 g/ha, Preemergence; 0 to 100 scale

## Cc1cccc(Cl)c1-n1c(=O)on(C(=O)N(c2ccc(F)cc2)C(C)C)c1=O [Compound 53]
barnyardgrass; Postemergence, Rate 1000 g/ha
  Plant response rating, Barnyardgrass: 3
barnyardgrass; Pre-emergence, Rate 2000 g/ha
  Plant response rating, Barnyardgrass: 8
crabgrass; Postemergence, Rate 1000 g/ha
  Plant response rating, Crabgrass: 6
crabgrass; Pre-emergence, Rate 2000 g/ha
  Plant response rating, Crabgrass: 9
velvetleaf; Postemergence, Rate 1000 g/ha
  Plant response rating, Velvetleaf: 1
velvetleaf; Pre-emergence, Rate 2000 g/ha
  Plant response rating, Velvetleaf: 0

## CC(C)N(C(=O)n1oc(=O)n(C(C)C)c1=O)c1ccc(Cl)cc1 [Compound 114]
barnyardgrass; Postemergence, Rate 1000 g/ha
  Plant response rating, Barnyardgrass: 8
barnyardgrass; Pre-emergence, Rate 2000 g/ha
  Plant response rating, Barnyardgrass: 10
crabgrass; Postemergence, Rate 1000 g/ha
  Plant response rating, Crabgrass: 7
crabgrass; Pre-emergence, Rate 2000 g/ha
  Plant response rating, Crabgrass: 10
velvetleaf; Postemergence, Rate 1000 g/ha
  Plant response rating, Velvetleaf: 5
velvetleaf; Pre-emergence, Rate 2000 g/ha
  Plant response rating, Velvetleaf: 6
Alexandergrass; [3]
  Plant response rating, Alexandergrass: 98
Common pursiane; [4]
  Plant response rating, C. purslane: 0
Common groundsel; [3]
  Plant response rating, Com. groundsel: 85
dallisgrass; [3]
  Plant response rating, Dallisgrass: 100
goosegrass; [3]
  Plant response rating, Goosegrass: 100
guineagrass; [3]
  Plant response rating, Guineagrass: 100
itchgrass; [3]
  Plant response rating, Itchgrass: 20
Johnson grass; [3]
  Plant response rating Johnsongrass: 0
Large crabgrass; [3]
  Plant response rating Large crabgrass: 100
Pitted morningglory; [3]
  Plant response rating, P. morninglory: 0
Purple nutsedge; [3]
  Purple nutsedge plant response rating: 20
sandbur; [3]
  Sandbur plant response rating: 85
Spanishneedles; [3]
  Spanishneedles plant response rating: 0
Surinam grass; [3]
  Surinam grass plant response rating: 75
Tall mallow; [3]
  Tall Mallow plant response rating: 10
Green foxtail [1]; [4]
  Green foxtail plant response rating: 100
  Plant response rating, Green foxtail: 100

## CC(C)N(C(=O)n1oc(=O)n(N(C)C)c1=O)c1ccccc1 [Compound 225]
barnyardgrass; Postemergence, Rate 1000 g/ha
  Plant response rating, Barnyardgrass: 9
barnyardgrass; Pre-emergence, Rate 2000 g/ha
  Plant response rating, Barnyardgrass: 10
crabgrass; Postemergence, Rate 1000 g/ha
  Plant response rating, Crabgrass: 9
crabgrass; Pre-emergence, Rate 2000 g/ha
  Plant response rating, Crabgrass: 10
velvetleaf; Postemergence, Rate 1000 g/ha
  Plant response rating, Velvetleaf: 3
velvetleaf; Pre-emergence, Rate 2000 g/ha
  Plant response rating, Velvetleaf: 7

## CC(C)N(C(=O)n1oc(=O)n(C2CCCCC2)c1=O)c1ccc(F)cc1F [Compound 115]
Alexandergrass; [5]
  Plant response rating, Alexandergrass: 0
Alexandergrass; [6]
  Plant response rating, Alexandergrass: 20
Alexandergrass; [7]
  Plant response rating, Alexandergrass: 50
Alexandergrass; [3]
  Plant response rating, Alexandergrass: 75
Alexandergrass; Rate 250 g/ha
  Plant response rating, Alexandergrass: 85
Alexandergrass; Rate 500 g/ha
  Plant response rating, Alexandergrass: 100
Common pursiane; [8]
  Plant response rating, C. purslane: 0
Common pursiane; [9]
  Plant response rating, C. purslane: 0
Common pursiane; [10]
  Plant response rating, C. purslane: 0
Common pursiane; [4]
  Plant response rating, C. purslane: 0
Common pursiane; [11]
  Plant response rating, C. purslane: 0
Common pursiane; [12]
  Plant response rating, C. purslane: 20
Common pursiane; Rate 500 g/ha; Preemergence; 0 to 100 scale
  Plant response rating, C. purslane: 0
Common groundsel; [5]
  Plant response rating, Com. groundsel: 0
Common groundsel; [6]
  Plant response rating, Com. groundsel: 0
Common groundsel; [7]
  Plant response rating, Com. groundsel: 10
Common groundsel; [3]
  Plant response rating, Com. groundsel: 10
Common groundsel; Rate 250 g/ha
  Plant response rating, Com. groundsel: 10
Common groundsel; Rate 500 g/ha
  Plant response rating, Com. groundsel: 98
dallisgrass; [5]
  Plant response rating, Dallisgrass: 0
dallisgrass; [6]
  Plant response rating, Dallisgrass: 75
dallisgrass; [7]
  Plant response rating, Dallisgrass: 75
dallisgrass; [3]
  Plant response rating, Dallisgrass: 98
dallisgrass; Rate 250 g/ha
  Plant response rating, Dallisgrass: 98
dallisgrass; Rate 500 g/ha
  Plant response rating, Dallisgrass: 100
goosegrass; [5]
  Plant response rating, Goosegrass: 20
goosegrass; [6]
  Plant response rating, Goosegrass: 85
goosegrass; [7]
  Plant response rating, Goosegrass: 90
goosegrass; [3]
  Plant response rating, Goosegrass: 98
goosegrass; Rate 250 g/ha
  Plant response rating, Goosegrass: 100
goosegrass; Rate 500 g/ha
  Plant response rating, Goosegrass: 100
guineagrass; [5]
  Plant response rating, Guineagrass: 0
guineagrass; [6]
  Plant response rating, Guineagrass: 30
guineagrass; [7]
  Plant response rating, Guineagrass: 30
guineagrass; [3]
  Plant response rating, Guineagrass: 85
guineagrass; Rate 250 g/ha
  Plant response rating, Guineagrass: 98
guineagrass; Rate 500 g/ha
  Plant response rating, Guineagrass: 100
itchgrass; [5]
  Plant response rating, Itchgrass: 40
itchgrass; [6]
  Plant response rating, Itchgrass: 40
itchgrass; [7]
  Plant response rating, Itchgrass: 40
itchgrass; [3]
  Plant response rating, Itchgrass: 50
itchgrass; Rate 250 g/ha
  Plant response rating, Itchgrass: 50
itchgrass; Rate 500 g/ha
  Plant response rating, Itchgrass: 50
Johnson grass; [5]
  Plant response rating Johnsongrass: 0
Johnson grass; [6]
  Plant response rating Johnsongrass: 40
Johnson grass; [7]
  Plant response rating Johnsongrass: 40
Johnson grass; [3]
  Plant response rating Johnsongrass: 60
Johnson grass; Rate 250 g/ha
  Plant response rating Johnsongrass: 75
Johnson grass; Rate 500 g/ha
  Plant response rating Johnsongrass: 90
Large crabgrass; [5]
  Plant response rating Large crabgrass: 75
Large crabgrass; [6]
  Plant response rating Large crabgrass: 75
Large crabgrass; [7]
  Plant response rating Large crabgrass: 85
Large crabgrass; [3]
  Plant response rating Large crabgrass: 100
Large crabgrass; Rate 250 g/ha
  Plant response rating Large crabgrass: 100
Large crabgrass; Rate 500 g/ha
  Plant response rating Large crabgrass: 100
Pitted morningglory; [5]
  Plant response rating, P. morninglory: 0
Pitted morningglory; [6]
  Plant response rating, P. morninglory: 0
Pitted morningglory; [7]
  Plant response rating, P. morninglory: 0
Pitted morningglory; [3]
  Plant response rating, P. morninglory: 0
Pitted morningglory; Rate 250 g/ha
  Plant response rating, P. morninglory: 0
Pitted morningglory; Rate 500 g/ha
  Plant response rating, P. morninglory: 10
Purple nutsedge; [5]
  Plant response rating, Purple nutsedge: 0
Purple nutsedge; [6]
  Plant response rating, Purple nutsedge: 0
Purple nutsedge; [7]
  Purple nutsedge plant response rating: 0
Purple nutsedge; [3]
  Purple nutsedge plant response rating: 0
Purple nutsedge; Rate 250 g/ha
  Plant response rating, Purple nutsedge: 0
Purple nutsedge; Rate 500 g/ha
  Plant response rating, Purple nutsedge: 0
sandbur; [5]
  Plant response rating, Sandbur: 0
sandbur; [6]
  Plant response rating, Sandbur: 0
sandbur; [7]
  Sandbur plant response rating: 0
sandbur; [3]
  Sandbur plant response rating: 40
sandbur; Rate 250 g/ha
  Plant response rating, Sandbur: 50
sandbur; Rate 500 g/ha
  Plant response rating, Sandbur: 100
Spanishneedles; [5]
  Plant response rating, Spanishneedles: 0
Spanishneedles; [6]
  Plant response rating, Spanishneedles: 0
Spanishneedles; [7]
  Spanishneedles plant response rating: 0
Spanishneedles; [3]
  Spanishneedles plant response rating: 0
Spanishneedles; Rate 500 g/ha
  Plant response rating, Spanishneedles: 10
Surinam grass; [5]
  Plant response rating, Surinam grass: 0
Surinam grass; [6]
  Plant response rating, Surinam grass: 20
Surinam grass; [7]
  Surinam grass plant response rating: 65
Surinam grass; [3]
  Surinam grass plant response rating: 75
Surinam grass; Rate 250 g/ha
  Plant response rating, Surinam grass: 75
Surinam grass; Rate 500 g/ha
  Plant response rating, Surinam grass: 85
Tall mallow; [5]
  Plant response rating, Tall Mallow: 0
Tall mallow; [6]
  Plant response rating, Tall Mallow: 0
Tall mallow; [7]
  Tall Mallow plant response rating: 0
Tall mallow; [3]
  Tall Mallow plant response rating: 0
Tall mallow; Rate 250 g/ha
  Plant response rating, Tall Mallow: 0
Tall mallow; Rate 500 g/ha
  Plant response rating, Tall Mallow: 0
Green foxtail [2]; Rate 250 g/ha
  Plant response rating, Green foxtail: 100
Green foxtail [2]; Rate 500 g/ha
  Plant response rating, Green foxtail: 100
Green foxtail [1]; Preemergence; Rate 16 g/ha; 0 to 100 scale, 0 no injury, 100 complete control
  Plant response rating, Green foxtail: 0
Green foxtail [1]; Preemergence; Rate 32 g/ha; 0 to 100 scale, 0 no injury, 100 complete control
  Plant response rating, Green foxtail: 70
Green foxtail [1]; [8]
  Plant response rating, Green foxtail: 0
Green foxtail [1]; [9]
  Plant response rating, Green foxtail: 75
Green foxtail [1]; [10]
  Green foxtail plant response rating: 85
  Plant response rating, Green foxtail: 85
Green foxtail [1]; [4]
  Green foxtail plant response rating: 100
  Plant response rating, Green foxtail: 100
Green foxtail [1]; [11]
  Plant response rating, Green foxtail: 100
Green foxtail [1]; [12]
  Plant response rating, Green foxtail: 100

## CCc1cccc(C)c1-n1c(=O)on(C(=O)N(c2ccc(F)cc2)C(C)C)c1=O [Compound 52]
barnyardgrass; Postemergence, Rate 1000 g/ha
  Plant response rating, Barnyardgrass: 5
barnyardgrass; Pre-emergence, Rate 2000 g/ha
  Plant response rating, Barnyardgrass: 9
crabgrass; Postemergence, Rate 1000 g/ha
  Plant response rating, Crabgrass: 8
crabgrass; Pre-emergence, Rate 2000 g/ha
  Plant response rating, Crabgrass: 10
velvetleaf; Postemergence, Rate 1000 g/ha
  Plant response rating, Velvetleaf: 1
velvetleaf; Pre-emergence, Rate 2000 g/ha
  Plant response rating, Velvetleaf: 0
